Results from patent US4434159A, “Pharmaceutical composition for intrarectal administration, and suppository prepared therefrom” (Teijin Limited, priority 1980, dated 1984).

What was measured:
[1] = test system: mucous membrane of the eyes (cornea, iris, conjunctiva); test: Draize eye irritation test of absorption aids in rabbits; conditions: for Primary irritation scores on the eyes: Conjunctiva / Primary irritation scores on the eyes: Cornea / Primary irritation scores on the eyes: Iris / Primary irritation scores on the eyes: Total: 2.4 w/v % soln; for irritation to the mucous membrane of the eyes (in words): aqueous solution applied dropwise to rabbit eye, Draize evaluation
Method: Nothing was applied to the other eye. Thus, irritation of the absorption aid to the mucous membrane of the eyes were examined, and scores were calculated in accordance with the Draize's eye irritation evaluating method [Association of Foods, Drugs and Cosmetics" (1957)].

serum calcium level [2] = test: Effect of the amount of the absorption aid on the decrease of serum calcium level (calcitonin suppositories, rats); type: in vivo; conditions: intrarectal, SD male rats, one hour
Method: (§1) (a) About 14 g of each of the absorption aids shown in Table 1 was added to 186 g of cacao butter, and they were well mixed by a grinder. Salmon caltintonin or [Asu^1,7 ]-eel calcitonin was added gradually and mixed to form a homogeneous composition. The composition was slightly heated to make it flowable, and about 80 mg of it was cast into a suppository container made for rats, and allowed to solidify by cooling to obtain a rat suppository having a diameter of about 3 mm and a length of about 6 mm. The suppository contained 0.7 MRC units of calcitonin.
(§2) The suppository was administered to the rectum of each of […] male rats (body weight about 200 g) and the concentration of calcium in the serum was measured 1, 2, 3, and 5 hours later to examine the absorbabillity of calcitonin from the rectum. The calcium level in the serum was measured by using a calcium level measuring kit of Yatoron Co., and five rats were used for each blood withdrawal. The results are shown in Table 1 as the decrease (%) of the serum calcium level from that before administration of the calcitonin-containing suppository.
(b) Suppositories containing 0.7 MRC unit of [Aus^1.7 ]-eel calcitonin per 80 mg were prepared in the same way as in (a) above by including each of the absorption aids shown in Table 2 in the amounts indicated. Each of the suppositories was intrarectally administered to SD male rats in the same way as in (a) above, and the decrease (%) of the serum calcium level was measured one hour after the administration.

serum calcium level [3] = test: Decrease of the serum calcium level after administration of calcitonin suppositories to rats; type: in vivo; conditions: 0.7 u/kg intramuscularly administered
Method: as §1, §2
Furthermore, [Aus^1,7 ]-eel calcitonin was intramuscularly injected to rats, and the decrease in serum calcium level was also examined.

[4] = absorption aid 0.8% of suppository with 0.7 MRC unit [Aus^1.7]-eel calcitonin per 80 mg
[5] = absorption aid 2.4% of suppository with 0.7 MRC unit [Aus^1.7]-eel calcitonin per 80 mg
[6] = absorption aid 7.0% of suppository with 0.7 MRC unit [Aus^1.7]-eel calcitonin per 80 mg
[7] = absorption aid 15.0% of suppository with 0.7 MRC unit [Aus^1.7]-eel calcitonin per 80 mg

Molecule | Primary irritation scores on the eyes: Conjunctiva ([1]; 1 hours after application) | Primary irritation scores on the eyes: Cornea ([1]; 1 hours after application) | Primary irritation scores on the eyes: Iris ([1]; 1 hours after application) | Primary irritation scores on the eyes: Total ([1]; 1 hours after application) | Primary irritation scores on the eyes: Conjunctiva ([1]; 3 hours after application) | Primary irritation scores on the eyes: Cornea ([1]; 3 hours after application) | Primary irritation scores on the eyes: Iris ([1]; 3 hours after application) | Primary irritation scores on the eyes: Total ([1]; 3 hours after application) | Primary irritation scores on the eyes: Conjunctiva ([1]; 6 hours after application) | Primary irritation scores on the eyes: Cornea ([1]; 6 hours after application) | Primary irritation scores on the eyes: Iris ([1]; 6 hours after application) | Primary irritation scores on the eyes: Total ([1]; 6 hours after application) | Primary irritation scores on the eyes: Conjunctiva ([1]; 24 hours after application) | Primary irritation scores on the eyes: Cornea ([1]; 24 hours after application) | Primary irritation scores on the eyes: Iris ([1]; 24 hours after application) | Primary irritation scores on the eyes: Total ([1]; 24 hours after application) | Primary irritation scores on the eyes: Conjunctiva ([1]; 48 hours after application) | Primary irritation scores on the eyes: Cornea ([1]; 48 hours after application) | Decrease of the serum calcium level (%) (serum calcium level [2]; [4]) | Decrease of the serum calcium level (%) (serum calcium level [2]; [5]) | also measured
O=C1O[C@H]([C@@H](O)CO)C(O)=C1O [Ascorbic acid] | 3.3 | 0 | 0 | 3.3 | 1.3 | 0 | 0 | 1.3 | 1.3 | 0 | 0 | 1.3 | 0 | 0 | 0 | 0 | 0 | 0 | 16.0 | 22.3 | Primary irritation scores on the eyes: Iris ([1]; 48 hours after application): 0; Primary irritation scores on the eyes: Total ([1]; 48 hours after application): 0; Primary irritation scores on the eyes: Conjunctiva ([1]; 72 hours after application): 0; Primary irritation scores on the eyes: Cornea ([1]; 72 hours after application): 0; Primary irritation scores on the eyes: Iris ([1]; 72 hours after application): 0; Primary irritation scores on the eyes: Total ([1]; 72 hours after application): 0; Primary irritation scores on the eyes: Conjunctiva ([1]; 96 hours after application): 0; Primary irritation scores on the eyes: Cornea ([1]; 96 hours after application): 0; Primary irritation scores on the eyes: Iris ([1]; 96 hours after application): 0; Primary irritation scores on the eyes: Total ([1]; 96 hours after application): 0; Primary irritation scores on the eyes: Conjunctiva ([1]; 168 hours after application): 0; Primary irritation scores on the eyes: Cornea ([1]; 168 hours after application): 0; Primary irritation scores on the eyes: Iris ([1]; 168 hours after application): 0; Primary irritation scores on the eyes: Total ([1]; 168 hours after application): 0; irritation to the mucous membrane of the eyes (in words) [1]: almost no irritation; Decrease of the serum calcium level (%) (serum calcium level [2]; [6]): 33.1%; Decrease of the serum calcium level (%) (serum calcium level [2]; [7]): 35.1%
O=C([O-])c1ccccc1O.[Na+] [Sodium salicylate, reference compound] | – | – | – | – | – | – | – | – | – | – | – | – | – | – | – | – | – | – | 11.4 | 20.3 | Decrease of the serum calcium level (%) (serum calcium level [2]; [6]): 29.6%
N[C@@H](CCC(=O)O)C(=O)O [L-Glutamic acid] | 3.3 | 0 | 0 | 3.3 | 2.0 | 0 | 0 | 2.0 | 2.0 | 0 | 0 | 2.0 | 0 | 0 | 0 | 0 | 0 | 0 | 11.5 | 17.2 | Primary irritation scores on the eyes: Iris ([1]; 48 hours after application): 0; Primary irritation scores on the eyes: Total ([1]; 48 hours after application): 0; Primary irritation scores on the eyes: Conjunctiva ([1]; 72 hours after application): 0; Primary irritation scores on the eyes: Cornea ([1]; 72 hours after application): 0; Primary irritation scores on the eyes: Iris ([1]; 72 hours after application): 0; Primary irritation scores on the eyes: Total ([1]; 72 hours after application): 0; Primary irritation scores on the eyes: Conjunctiva ([1]; 96 hours after application): 0; Primary irritation scores on the eyes: Cornea ([1]; 96 hours after application): 0; Primary irritation scores on the eyes: Iris ([1]; 96 hours after application): 0; Primary irritation scores on the eyes: Total ([1]; 96 hours after application): 0; Primary irritation scores on the eyes: Conjunctiva ([1]; 168 hours after application): 0; Primary irritation scores on the eyes: Cornea ([1]; 168 hours after application): 0; Primary irritation scores on the eyes: Iris ([1]; 168 hours after application): 0; Primary irritation scores on the eyes: Total ([1]; 168 hours after application): 0; irritation to the mucous membrane of the eyes (in words) [1]: almost no irritation; Decrease of the serum calcium level (%) (serum calcium level [2]; [7]): 28.1%
[Asu^1,7 ]-eel calcitonin [[Asu^1.7]eel calcitonin] | – | – | – | – | – | – | – | – | – | – | – | – | – | – | – | – | – | – | – | – | Decrease (%) in serum calcium level from that before administration (serum calcium level [3]; after 1 hour): 26.0%; Decrease (%) in serum calcium level from that before administration (serum calcium level [3]; after 2 hours): 30.5%; Decrease (%) in serum calcium level from that before administration (serum calcium level [3]; after 3 hours): 17.5%; Decrease (%) in serum calcium level from that before administration (serum calcium level [3]; after 5 hours): 2.1%
